# Laboratory results taken from PubChem BioAssay AID2060626 (Molecular Pharmacology Branch, DTP, NCI, 2025).
# Where “and” joins values, the source holds several entries; their conditions need not be identical. Equal entries are not always repeated.
# Test system: 168753-222-R-J1-PDC complex spheroid viability
# Experiment: Anticancer human tumor 168753-222-R-J1-PDC patient-derived bladder carcinoma cell line growth inhibition [CLK]
# Details: for viability, T/C: stronger effect = lower value
# Summary of the method: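 Patient-derived tumor cells grown as complex spheroids with HUVEC endothelial cells and mesenchymal stem cells, treated with drug combinations. Concentrations descend in half-log steps from near clinical Cmax, or from 10 microM if Cmax unknown.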
# [1] = curve of first compound, second compound 0.0316 µM
# [2] = curve of first compound, second compound 0.1 µM
# [3] = curve of first compound, second compound 0.316 µM
# [4] = curve of first compound, second compound 1 µM
# [5] = curve of first compound, second compound 3.16 µM
# [6] = curve of first compound, second compound 10 µM
# [7] = second compound 0.0316 µM, first compound 0.0316 µM
# [8] = second compound 0.0316 µM, first compound 0.1 µM
# [9] = second compound 0.0316 µM, first compound 0.316 µM
# [10] = second compound 0.0316 µM, first compound 1 µM
# [11] = second compound 0.0316 µM, first compound 3.16 µM
# [12] = second compound 0.0316 µM, first compound 10 µM
# [13] = second compound 0.1 µM, first compound 0.0316 µM
# [14] = second compound 0.1 µM, first compound 0.1 µM
# [15] = second compound 0.1 µM, first compound 0.316 µM
# [16] = second compound 0.1 µM, first compound 1 µM
# [17] = second compound 0.1 µM, first compound 3.16 µM
# [18] = second compound 0.1 µM, first compound 10 µM
# [19] = second compound 0.316 µM, first compound 0.0316 µM
# [20] = second compound 0.316 µM, first compound 0.1 µM
# [21] = second compound 0.316 µM, first compound 0.316 µM
# [22] = second compound 0.316 µM, first compound 1 µM
# [23] = second compound 0.316 µM, first compound 3.16 µM
# [24] = second compound 0.316 µM, first compound 10 µM
# [25] = second compound 1 µM, first compound 0.0316 µM
# [26] = second compound 1 µM, first compound 0.1 µM
# [27] = second compound 1 µM, first compound 0.316 µM
# [28] = second compound 1 µM, first compound 1 µM
# [29] = second compound 1 µM, first compound 3.16 µM
# [30] = second compound 1 µM, first compound 10 µM
# [31] = second compound 3.16 µM, first compound 0.0316 µM
# [32] = second compound 3.16 µM, first compound 0.1 µM
# [33] = second compound 3.16 µM, first compound 0.316 µM
# [34] = second compound 3.16 µM, first compound 1 µM
# [35] = second compound 3.16 µM, first compound 3.16 µM
# [36] = second compound 3.16 µM, first compound 10 µM
# [37] = second compound 10 µM, first compound 0.0316 µM
# [38] = second compound 10 µM, first compound 0.1 µM
# [39] = second compound 10 µM, first compound 0.316 µM
# [40] = second compound 10 µM, first compound 1 µM
# [41] = second compound 10 µM, first compound 3.16 µM
# [42] = second compound 10 µM, first compound 10 µM
# 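Further: viability measured after seven days of drug exposure.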
# 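Wherever viability, T/C is given: luminescence signal used as surrogate for viable cell amount; 100% = DMSO vehicle control wells.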
structure (smiles),measurement,setting,value
CCCS(=O)(=O)Nc1ccc(F)c(C(=O)c2c[nH]c3ncc(-c4ccc(Cl)cc4)cc23)c1F + CNC(=O)c1ccc(Nc2nc(OC3CCCC3)c3c(-c4ccc5nc(C)oc5c4)c[nH]c3n2)c(OC)c1,IC50,[1],> 10000 nM
same,IC50,[2],> 10000 nM
same,IC50,[3],9850 nM
same,IC50,[4],3860 nM
same,IC50,[5],< 31.6 nM
same,IC50,[6],< 31.6 nM
same,"viability, T/C",[7],109%
same,"viability, T/C",[8],105%
same,"viability, T/C",[9],113%
same,"viability, T/C",[10],116%
same,"viability, T/C",[11],105%
same,"viability, T/C",[12],68.1%
same,"viability, T/C",[13],91.6%
same,"viability, T/C",[14],103%
same,"viability, T/C",[15],105%
same,"viability, T/C",[16],106%
same,"viability, T/C",[17],103%
same,"viability, T/C",[18],66.2%
same,"viability, T/C",[19],92.3%
same,"viability, T/C",[20],98.7%
same,"viability, T/C",[21],93.1%
same,"viability, T/C",[22],104%
same,"viability, T/C",[23],101%
same,"viability, T/C",[24],49.3%
same,"viability, T/C",[25],53.7%
same,"viability, T/C",[26],50.7%
same,"viability, T/C",[27],46.9%
same,"viability, T/C",[28],57.2%
same,"viability, T/C",[29],64%
same,"viability, T/C",[30],28.6%
same,"viability, T/C",[31],25.1%
same,"viability, T/C",[32],33.7%
same,"viability, T/C",[33],34.4%
same,"viability, T/C",[34],30.1%
same,"viability, T/C",[35],29.6%
same,"viability, T/C",[36],26.1%
same,"viability, T/C",[37],20%
same,"viability, T/C",[38],31.2%
same,"viability, T/C",[39],29.7%
same,"viability, T/C",[40],20.1%
same,"viability, T/C",[41],27.8%
same,"viability, T/C",[42],24%
CC1(C)CCC(CN2CCN(c3ccc(C(=O)NS(=O)(=O)c4ccc(NCC5CCOCC5)c([N+](=O)[O-])c4)c(Oc4cnc5[nH]ccc5c4)c3)CC2)=C(c2ccc(Cl)cc2)C1,"viability, T/C",compound 0.0316 µM,87% and 96.7%
same,"viability, T/C",compound 0.1 µM,97% and 94.3%
same,"viability, T/C",compound 0.316 µM,74% and 113%
same,"viability, T/C",compound 1 µM,112% and 102%
same,"viability, T/C",compound 3.16 µM,54.4% and 93.3%
same,"viability, T/C",compound 10 µM,10.7% and 22%
same,IC50,curve of compound,3550 nM and 6370 nM
CCc1c2c(nc3ccc(O)cc13)-c1cc3c(c(=O)n1C2)COC(=O)[C@]3(O)CC,"viability, T/C",compound 0.00316 µM,86.5% and 95.1%
same,"viability, T/C",compound 0.01 µM,49.5% and 86.4%
same,"viability, T/C",compound 0.0316 µM,31.5% and 79.7%
same,"viability, T/C",compound 0.1 µM,32.8% and 59.9%
same,"viability, T/C",compound 0.316 µM,15.3% and 52.8%
same,"viability, T/C",compound 1 µM,12% and 15.8%
Nc1ccccc1NC(=O)c1ccc(CNC(=O)OCc2cccnc2)cc1 + CN1CCN(c2cc(C(=O)Nc3cc4cc(-c5cnn(C)c5)ccc4cn3)ccn2)CC1,IC50,[1],554 nM
same,IC50,[2],< 31.6 nM
same,IC50,[3],< 31.6 nM
same,IC50,[4],< 31.6 nM
same,IC50,[5],< 31.6 nM
same,IC50,[6],< 31.6 nM
same,"viability, T/C",[7],96.5%
same,"viability, T/C",[8],58.7%
same,"viability, T/C",[9],54.6%
same,"viability, T/C",[10],54%
same,"viability, T/C",[11],24.3%
same,"viability, T/C",[12],7.33%
same,"viability, T/C",[13],50%
same,"viability, T/C",[14],41.3%
same,"viability, T/C",[15],38.2%
same,"viability, T/C",[16],43.9%
same,"viability, T/C",[17],22.6%
same,"viability, T/C",[18],0.13%
same,"viability, T/C",[19],9.09%
same,"viability, T/C",[20],8.55%
same,"viability, T/C",[21],7.31%
same,"viability, T/C",[22],7.09%
same,"viability, T/C",[23],0.22%
same,"viability, T/C",[24],0.07%
same,"viability, T/C",[25],0.13%
same,"viability, T/C",[26],0.23%
same,"viability, T/C",[27],0.08%
same,"viability, T/C",[28],0.05%
same,"viability, T/C",[29],0.16%
same,"viability, T/C",[30],0.89%
same,"viability, T/C",[31],0.79%
same,"viability, T/C",[32],0.08%
same,"viability, T/C",[33],0.09%
same,"viability, T/C",[34],0.06%
same,"viability, T/C",[35],0.71%
same,"viability, T/C",[36],0.95%
same,"viability, T/C",[37],0.06%
same,"viability, T/C",[38],0.23%
same,"viability, T/C",[39],0.32%
same,"viability, T/C",[40],0.1%
same,"viability, T/C",[41],0.24%
same,"viability, T/C",[42],1.08%
COC1C=CCC(C)C(C)S(=O)(=O)NC(=O)c2ccc3c(c2)N(CC2CCC21)CC1(CCCc2cc(Cl)ccc21)CO3 (stereo not given) + CNC(=O)c1ccc(Nc2nc(OC3CCCC3)c3c(-c4ccc5nc(C)oc5c4)c[nH]c3n2)c(OC)c1,IC50,[1],2270 nM
same,IC50,[2],2160 nM
same,IC50,[3],203 nM
same,IC50,[4],< 31.6 nM
same,IC50,[5],< 31.6 nM
same,IC50,[6],< 31.6 nM
same,"viability, T/C",[7],105%
same,"viability, T/C",[8],118%
same,"viability, T/C",[9],101%
same,"viability, T/C",[10],87.6%
same,"viability, T/C",[11],34.6%
same,"viability, T/C",[12],13.6%
same,"viability, T/C",[13],102%
same,"viability, T/C",[14],106%
same,"viability, T/C",[15],101%
same,"viability, T/C",[16],78.5%
same,"viability, T/C",[17],35.9%
same,"viability, T/C",[18],18.9%
same,"viability, T/C",[19],75.9%
same,"viability, T/C",[20],74%
same,"viability, T/C",[21],35%
same,"viability, T/C",[22],29.7%
same,"viability, T/C",[23],30%
same,"viability, T/C",[24],11.9%
same,"viability, T/C",[25],33%
same,"viability, T/C",[26],22.6%
same,"viability, T/C",[27],15.8%
same,"viability, T/C",[28],13.6%
same,"viability, T/C",[29],14.9%
same,"viability, T/C",[30],9.33%
same,"viability, T/C",[31],20.9%
same,"viability, T/C",[32],15.9%
same,"viability, T/C",[33],16.9%
same,"viability, T/C",[34],11.5%
same,"viability, T/C",[35],15.3%
same,"viability, T/C",[36],7.77%
same,"viability, T/C",[37],18%
same,"viability, T/C",[38],15.3%
same,"viability, T/C",[39],16.7%
same,"viability, T/C",[40],10.5%
same,"viability, T/C",[41],11.3%
same,"viability, T/C",[42],11.4%
O=c1[nH]cc(F)c(=O)[nH]1,"viability, T/C",compound 0.0316 µM,93.5% and 101%
same,"viability, T/C",compound 0.1 µM,102% and 107%
same,"viability, T/C",compound 0.316 µM,88% and 104%
same,"viability, T/C",compound 1 µM,109% and 112%
same,"viability, T/C",compound 3.16 µM,67.9% and 113%
same,"viability, T/C",compound 10 µM,53.5% and 93.2%
same,IC50,curve of compound,> 10000 nM
COc1cccc2c1C(=O)c1c(O)c3c(c(O)c1C2=O)CC(O)(C(=O)CO)CC3OC1CC(N)C(O)C(C)O1 (stereo not given),"viability, T/C",compound 0.0316 µM,49.4% and 85.7%
same,"viability, T/C",compound 0.1 µM,38.7% and 47.7%
same,"viability, T/C",compound 0.316 µM,28.3% and 46.2%
same,"viability, T/C",compound 1 µM,7.17% and 21%
same,"viability, T/C",compound 3.16 µM,7.34% and 13.8%
same,"viability, T/C",compound 10 µM,0.22% and 0.15%
same,IC50,curve of compound,< 31.6 nM and 159 nM
COc1ccc([C@@H](O)c2cc(-c3ncnc4cc(N5CCOCC5)ccc34)c(F)cc2Cl)nn1,"viability, T/C",compound 0.0316 µM,90% and 106%
same,"viability, T/C",compound 0.1 µM,95.4% and 97.4%
same,"viability, T/C",compound 0.316 µM,40.8% and 95.7%
same,"viability, T/C",compound 1 µM,26.3% and 80.3%
same,"viability, T/C",compound 3.16 µM,13.1% and 37.1%
same,"viability, T/C",compound 10 µM,7.58% and 16.6%
same,IC50,curve of compound,258 nM and 2250 nM
